Assays:
[1] = molecular target: T1, K-Ras WT (Homo sapiens, UniProt P01116); experiment: HTRF resonance energy transfer assay, K-Ras WT / SOS1 interaction; assay type: biochemical; details: HTRF assay of Example 5; read-out: IC50 against K-Ras WT
T1 construct: made in house; host or cells: E. coli BL21 (DE3)
Summary of the method: (§1)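 GST-tagged K-Ras (WT or mutant) bound to anti-GST-Eu donor was mixed with His-hSOS1 bound to anti-6His-XL665 acceptor in ~5 mM HEPES pH 7.4, 150 mM NaCl, 1 mM DTT, 0.05% BSA, 0.0025% Igepal. HTRF (ex 337, em 620/665 nm) was read after ~10 min or longer. IC50 came from the 665/620 ratio over duplicates from 10 μM to 0.01 μM.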

[2] = system: A549 cells; experiment: Ras cellular assay, growth of cells with K-Ras G12S mutation (CellTiter-Glo); assay type: cell-based; details: Homo sapiens, cell growth, Example 9, G12S mutation, read-out: IC50 against A549 cells
Summary of the method: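 A549 cells (K-Ras G12S) in RPMI-1640 with 10% heat-inactivated FBS, seeded e.g. 800 per well in standard or ultra-low-attachment 384-well plates, treated next day with a dilution series (e.g. 10-point, 3-fold). Viability by CellTiter-Glo luminescence about 6 days later; IC50 from four-parameter fit.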

[3] = system: SW620 cells; experiment: Ras cellular assay, growth of cells with K-Ras G12V mutation (CellTiter-Glo); assay type: cell-based; details: Homo sapiens, SW-620; cell growth, Example 9, G12V mutation; read-out: IC50 against SW620 cells
Summary of the method: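 SW620 (K-Ras G12V) cells, e.g. 800/well in RPMI-1640 with 10% heat-inactivated FBS on standard or ultra-low attachment plates, were dosed the day after plating with e.g. a 10-point 3-fold series. Viability by CellTiter-Glo luminescence about 6 days later; IC50 from four-parameter fit.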

[4] = molecular target: T2, K-Ras G12D (Homo sapiens, UniProt P01116, G12D); experiment: HTRF resonance energy transfer assay, K-Ras G12D / SOS1 interaction; assay type: biochemical; details: HTRF assay of Example 5; read-out: IC50 against K-Ras G12D
T2 construct: made in house; host or cells: E. coli BL21 (DE3)
T2 sequence (P01116 1-188 isoform P01116-2 G12D): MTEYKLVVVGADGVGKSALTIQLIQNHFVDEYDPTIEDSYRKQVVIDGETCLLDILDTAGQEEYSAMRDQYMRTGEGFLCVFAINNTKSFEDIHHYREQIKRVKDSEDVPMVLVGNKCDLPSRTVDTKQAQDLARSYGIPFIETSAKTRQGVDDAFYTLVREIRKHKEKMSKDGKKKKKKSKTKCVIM
Summary of the method: as §1

[5] = molecular target: T3, K-Ras G12S (Homo sapiens, UniProt P01116, G12S); experiment: HTRF resonance energy transfer assay, K-Ras G12S / SOS1 interaction; assay type: biochemical; details: HTRF assay of Example 5; read-out: IC50 against K-Ras G12S
T3 construct: made in house; host or cells: E. coli BL21 (DE3)
T3 sequence (P01116 1-188 isoform P01116-2 G12S): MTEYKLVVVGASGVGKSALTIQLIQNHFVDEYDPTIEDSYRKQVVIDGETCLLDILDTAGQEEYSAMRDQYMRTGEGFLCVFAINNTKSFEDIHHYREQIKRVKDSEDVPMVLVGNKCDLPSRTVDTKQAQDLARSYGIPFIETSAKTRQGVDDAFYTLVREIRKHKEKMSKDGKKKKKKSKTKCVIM
Summary of the method: as §1

[6] = system: GP2D cells; experiment: Ras cellular assay, growth of cells with K-Ras G12D mutation (CellTiter-Glo); assay type: cell-based; details: cell growth, Example 9, G12D mutation, read-out: IC50 against GP2D cells
[7] = molecular target: T4, K-Ras G12V (Homo sapiens, UniProt P01116, G12V); experiment: HTRF resonance energy transfer assay, K-Ras G12V / SOS1 interaction; assay type: biochemical; details: HTRF assay of Example 5; read-out: IC50 against K-Ras G12V
T4 construct: made in house; host or cells: E. coli BL21 (DE3)
T4 sequence (P01116 1-188 isoform P01116-2 G12V): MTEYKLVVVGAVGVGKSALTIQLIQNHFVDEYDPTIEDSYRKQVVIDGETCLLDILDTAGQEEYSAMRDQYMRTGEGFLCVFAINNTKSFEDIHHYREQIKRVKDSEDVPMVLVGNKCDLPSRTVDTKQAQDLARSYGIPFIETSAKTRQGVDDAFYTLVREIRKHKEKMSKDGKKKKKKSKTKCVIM
Summary of the method: as §1

T1 sequence (P01116 1-188 isoform P01116-2): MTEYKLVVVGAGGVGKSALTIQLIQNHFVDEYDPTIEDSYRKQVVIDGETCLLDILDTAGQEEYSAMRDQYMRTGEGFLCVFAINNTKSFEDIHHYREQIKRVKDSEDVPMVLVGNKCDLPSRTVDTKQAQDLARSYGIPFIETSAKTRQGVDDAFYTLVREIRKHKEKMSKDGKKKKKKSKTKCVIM

Row | IC50 [1] | IC50 [2] | IC50 [3] | IC50 [4] | IC50 [5] | IC50 [7] | SMILES | IC50 [6]
1 | < 100 nM | < 5000 nM | < 5000 nM | < 100 nM | < 100 nM | < 100 nM | CN(C=O)C1CC(N2CCOc3c(Cl)c(-c4ccc(F)c5sc(N)c(C#N)c45)c(F)c4nc(OC[C@@]56CCCN5C[C@H](F)C6)nc2c34)C1 (stereo partly drawn) [Compound 1119, N-(3-(9-(2-amino-3-cyano-7-fluorobenzo[b]thiophen-4-yl)-8-chloro-10-fluoro-2-(((2R,7aS)-2-fluorotetrahydro-1H-pyrrolizin-7a(5H)-yl)methoxy)-5,6-dihydro-4H-[1,4]oxazepino[5,6,7-de]quinazolin-4-yl)cyclobutyl)-N-methylformamide] | < 500 nM
2 | < 100 nM | < 5000 nM | < 5000 nM | < 100 nM | < 100 nM | < 100 nM | CN(C)CCN1CCOc2c(Cl)c(-c3ccc(F)c4sc(N)c(C#N)c34)c(F)c3nc(OC[C@@]45CCCN4C[C@H](F)C5)nc1c23 [Compound 994, 2-amino-4-(8-chloro-4-(2-(dimethylamino)ethyl)-10-fluoro-2-(((2R,7aS)-2-fluorotetrahydro-1H-pyrrolizin-7a(5H)-yl)methoxy)-5,6-dihydro-4H-[1,4]oxazepino[5,6,7-de]quinazolin-9-yl)-7-fluorobenzo[b]thiophene-3-carbonitrile] | < 500 nM
3 | < 100 nM | < 5000 nM | < 5000 nM | < 100 nM | < 100 nM | < 100 nM | N#Cc1c(N)sc2c(F)ccc(-c3c(Cl)c4c5c(nc(OC[C@@]67CCCN6C[C@H](F)C7)nc5c3F)N([C@H]3CCOC3)CCO4)c12 [Compound 793, 2-amino-4-(8-chloro-10-fluoro-2-(((2R,7aS)-2-fluorotetrahydro-1H-pyrrolizin-7a(5H)-yl)methoxy)-4-((S)-tetrahydrofuran-3-yl)-5,6-dihydro-4H-[1,4]oxazepino[5,6,7-de]quinazolin-9-yl)-7-fluorobenzo[b]thiophene-3-carbonitrile] | < 500 nM
4 | < 100 nM | < 5000 nM | < 5000 nM | < 100 nM | < 100 nM | < 100 nM | N#Cc1c(N)sc2c(F)ccc(-c3c(Cl)c4c5c(nc(OC[C@@]67CCCN6C[C@H](F)C7)nc5c3F)N(C3CCOC3)CC(CF)O4)c12 (stereo partly drawn) [Compound 628, 2-amino-4-(8-chloro-10-fluoro-6-(fluoromethyl)-2-(((2R,7aS)-2-fluorotetrahydro-1H-pyrrolizin-7a(5H)-yl)methoxy)-4-(tetrahydrofuran-3-yl)-5,6-dihydro-4H-[1,4]oxazepino[5,6,7-de]quinazolin-9-yl)-7-fluorobenzo[b]thiophene-3-carbonitrile] | < 500 nM

Continued, compound first:

Row | SMILES | IC50 [1] | IC50 [2] | IC50 [3] | IC50 [4] | IC50 [5] | IC50 [7] | IC50 [6]
5 | C[C@H]1COc2c(Cl)c(-c3ccc(F)c4sc(N)c(C#N)c34)c(F)c3nc(OC[C@@]45CCCN4C[C@H](F)C5)nc(c23)N1CCC(F)F [Compound 835, 2-amino-4-((5S)-8-chloro-4-(3,3-difluoropropyl)-10-fluoro-2-(((2R,7aS)-2-fluorotetrahydro-1H-pyrrolizin-7a(5H)-yl)methoxy)-5-methyl-5,6-dihydro-4H-[1,4]oxazepino[5,6,7-de]quinazolin-9-yl)-7-fluorobenzo[b]thiophene-3-carbonitrile] | < 100 nM | < 5000 nM | < 5000 nM | < 100 nM | < 100 nM | < 100 nM | < 500 nM
6 | N#Cc1c(N)sc2c(F)ccc(-c3c(Cl)c4c5c(nc(OC[C@@]67CCCN6C[C@H](F)C7)nc5c3F)N(CC3CC3(F)F)CCO4)c12 (stereo partly drawn) [Compound 850, 2-amino-4-(8-chloro-4-((2,2-difluorocyclopropyl)methyl)-10-fluoro-2-(((2R,7aS)-2-fluorotetrahydro-1H-pyrrolizin-7a(5H)-yl)methoxy)-5,6-dihydro-4H-[1,4]oxazepino[5,6,7-de]quinazolin-9-yl)-7-fluorobenzo[b]thiophene-3-carbonitrile] | < 100 nM | < 5000 nM | < 5000 nM | < 100 nM | < 100 nM | < 100 nM | < 500 nM
7 | CC(CO)N1CCOc2c(Cl)c(-c3ccc(F)c4sc(N)c(C#N)c34)c(F)c3nc(OC[C@@]45CCCN4C[C@H](F)C5)nc1c23 (stereo partly drawn) [Compound 937, 2-amino-4-(8-chloro-10-fluoro-2-(((2R,7aS)-2-fluorotetrahydro-1H-pyrrolizin-7a(5H)-yl)methoxy)-4-(1-hydroxypropan-2-yl)-5,6-dihydro-4H-[1,4]oxazepino[5,6,7-de]quinazolin-9-yl)-7-fluorobenzo[b]thiophene-3-carbonitrile] | < 100 nM | < 5000 nM | < 5000 nM | < 100 nM | < 100 nM | < 100 nM | < 500 nM
8 | CS(=O)(=O)N1CCC(N2CCOc3c(Cl)c(-c4ccc(F)c5sc(N)c(C#N)c45)c(F)c4nc(OC[C@@]56CCCN5C[C@H](F)C6)nc2c34)C1 (stereo partly drawn) [Compound 966, 2-amino-4-(8-chloro-10-fluoro-2-(((2R,7aS)-2-fluorotetrahydro-1H-pyrrolizin-7a(5H)-yl)methoxy)-4-(1-(methylsulfonyl)pyrrolidin-3-yl)-5,6-dihydro-4H-[1,4]oxazepino[5,6,7-de]quinazolin-9-yl)-7-fluorobenzo[b]thiophene-3-carbonitrile] | < 100 nM | < 5000 nM | < 5000 nM | < 100 nM | < 100 nM | < 100 nM | < 500 nM
9 | C=C[C@H]1COc2c(Cl)c(-c3ccc(F)c4sc(N)c(C#N)c34)c(F)c3nc(OC[C@@]45CCCN4C[C@H](F)C5)nc(c23)N1CC(F)F (single isomer, unassigned) [Compound 890] | < 100 nM | < 5000 nM | < 5000 nM | < 100 nM | < 100 nM | < 100 nM | < 500 nM
10 | N#CCC1COc2c(Cl)c(-c3ccc(F)c4sc(N)c(C#N)c34)c(F)c3nc(OC[C@@]45CCCN4C[C@H](F)C5)nc(c23)N1CC(F)F (stereo partly drawn) [Compound 700, 2-amino-4-(8-chloro-5-(cyanomethyl)-4-(2,2-difluoroethyl)-10-fluoro-2-(((2R,7aS)-2-fluorotetrahydro-1H-pyrrolizin-7a(5H)-yl)methoxy)-5,6-dihydro-4H-[1,4]oxazepino[5,6,7-de]quinazolin-9-yl)-7-fluorobenzo[b]thiophene-3-carbonitrile] | < 100 nM | < 5000 nM | < 5000 nM | < 100 nM | < 100 nM | < 100 nM | < 500 nM
11 | C#Cc1c(F)ccc2cc(O)cc(-c3nc4c5c(nc(OC[C@@]67CCCN6C[C@H](F)C7)nc5c3F)N(C3CCCOC3)CCO4)c12 (stereo partly drawn) [Compound 661, 5-ethynyl-6-fluoro-4-(4-fluoro-2-(((2R,7aS)-2-fluorotetrahydro-1H-pyrrolizin-7a(5H)-yl)methoxy)-10-(tetrahydro-2H-pyran-3-yl)-9,10-dihydro-8H-7-oxa-1,3,6,10-tetraazacyclohepta[de]naphthalen-5-yl)naphthalen-2-ol] | < 100 nM | < 5000 nM | < 5000 nM | < 100 nM | < 100 nM | < 100 nM | < 500 nM
12 | N#Cc1c(N)sc2c(F)ccc(-c3c(Cl)c4c5c(nc(OC[C@@]67CCCN6C[C@H](F)C7)nc5c3F)N([C@@H]3CCN(C=O)C3)CCO4)c12 [Compound 716, 2-amino-4-(8-chloro-10-fluoro-2-(((2R,7aS)-2-fluorotetrahydro-1H-pyrrolizin-7a(5H)-yl)methoxy)-4-((R)-1-formylpyrrolidin-3-yl)-5,6-dihydro-4H-[1,4]oxazepino[5,6,7-de]quinazolin-9-yl)-7-fluorobenzo[b]thiophene-3-carbonitrile] | < 100 nM | < 5000 nM | < 5000 nM | < 100 nM | < 100 nM | < 100 nM | < 500 nM
13 | N#Cc1c(N)sc2c(F)ccc(-c3c(Cl)c4c5c(nc(OC[C@@]67CCCN6C[C@H](F)C7)nc5c3F)N(C3CCC(F)(F)C3)CCO4)c12 (stereo partly drawn) [Compound 717, 2-amino-4-(8-chloro-4-(3,3-difluorocyclopentyl)-10-fluoro-2-(((2R,7aS)-2-fluorotetrahydro-1H-pyrrolizin-7a(5H)-yl)methoxy)-5,6-dihydro-4H-[1,4]oxazepino[5,6,7-de]quinazolin-9-yl)-7-fluorobenzo[b]thiophene-3-carbonitrile] | < 100 nM | < 5000 nM | < 5000 nM | < 100 nM | < 100 nM | < 100 nM | < 500 nM

Source: patent US12209102B2, “Heterocyclic compounds and uses thereof” (Kumquat Biosciences Inc., priority 2022, dated 2025)
